For the data set, the system named is human RBC's. The experiment in a line: Binding of compound to RBC substrate and stability of the surface-bound moiety, anti-acridine antibody staining by flow cytometry (MFI). It is filed as cell-based. To be noted: at 37° C.; 0.2 mM compound, 2.0 mM GSH, overnight; mAb and polyAb staining. As for the experimental part: A study was performed to assess binding to RBC substrate by the compound 5-220, which is a non-frangible analog of S-303. This study also compared the stability of the surface bound moiety of the 5-220 compound to the stability of a similarly bound frangible S-303. More specifically, glutathione (GSH) quencher and the 5-220 compound were added to human RBC's substrate at concentrations of 2.0 mM and 0.2 mM, respectively, and then incubated overnight at 37° C. or 4° C. For comparison, GSH quencher and the frangible S-303 compound were similarly added to human RBC's at concentrations of 2.0 mM and 0.2 mM, respectively, and incubated overnight at 37° C. or 4° C. Both the non-frangible 5-220 and frangible S-303 compounds comprise an acridine moiety as part of their structures. Following incubation, the GSH/S-220 and GSH/S-303 treated RBC's were stained with either a mouse monoclonal (mAb) or rabbit polyclonal (polyAb) anti-acridine antibody (also at 4° C. or 37° C.), and the samples analyzed for antibody binding by flow cytometry using standard methods (quantitated as MFI). Both the mAb and polyAb anti-acridine antibodies were generated using the compound 5-197 for immunization.

Molecules are shown by their SMILES.

Regarding `O=C(CCNc1c2ccccc2nc2ccccc12)OCCN(CCCl)CCCl` [S-303, β-alanine, N-(acridin-9-yl), 2-[bis(2-chloroethyl)amino]ethyl ester], the “stability of binding to RBC's” value is recorded as “less stable than 5-220 binding to RBC's”.

The values above are taken from US12282015B2, “Systems and methods for testing and screening using compound bound substrates” (Cerus Corporation, priority 2016, dated 2025).
